The values below come from PubChem BioAssay AID330 (DTP/NCI, 2004).

Where “and” joins values, the source holds several entries; their conditions need not be identical. Identical values can stand only once. Toxic doses and inconclusive results are not listed.

The assay relates to P388 leukemia ip, CD2F1 mice, survival T/C. Nature of the assay: NCI In Vivo Anticancer Drug Screen. Data for tumor model P388 Leukemia (intraperitoneal) in CD2F1 (CDF1) mice. As to conditions: endpoint: median survival time, higher = longer survival. The procedure, abridged:
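Mice carrying the transplanted tumor received test compound or vehicle. Survival was recorded in each group, and the value is the treated-group measurement divided by that of the vehicle-treated control group.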

Where [1] appears, read: dose: 50.0 mg/kg/injection, schedule: Q01DX005 (ip), vehicle: saline with Tween-80.
Where [2] appears, read: dose: 100.0 mg/kg/injection, schedule: Q01DX005 (ip), vehicle: saline with Tween-80.
[3] abbreviates: dose: 50.0 mg/kg/injection, schedule: Q01DX005 (ip), vehicle: saline.
[4] abbreviates: dose: 100.0 mg/kg/injection, schedule: Q01DX005 (ip), vehicle: saline.
Where [5] appears, read: dose: 100.0 mg/kg/injection, schedule: Q01DX001 (ip), vehicle: Klucel (hydroxypropylcellulose) (HPC).
Setting [6] is: dose: 200.0 mg/kg/injection, schedule: Q01DX001 (ip), vehicle: Klucel (hydroxypropylcellulose) (HPC).
Where [7] appears, read: dose: 50.0 mg/kg/injection, schedule: Q01DX009 (ip), vehicle: saline.
[8] abbreviates: dose: 100.0 mg/kg/injection, schedule: Q01DX009 (ip), vehicle: saline.
The mark [9] stands for this setting: dose: 200.0 mg/kg/injection, schedule: Q01DX009 (ip), vehicle: saline.
The mark [10] stands for this setting: dose: 60.0 mg/kg/injection, schedule: Q01DX005 (ip), vehicle: saline with Tween-80.
Where [11] appears, read: dose: 120.0 mg/kg/injection, schedule: Q01DX005 (ip), vehicle: saline with Tween-80.
Where [12] appears, read: dose: 240.0 mg/kg/injection, schedule: Q01DX005 (ip), vehicle: saline with Tween-80.
The mark [13] stands for this setting: dose: 200.0 mg/kg/injection, schedule: Q01DX005 (ip), vehicle: saline with Tween-80.
The mark [14] stands for this setting: dose: 6.25 mg/kg/injection, schedule: Q01DX005 (ip), vehicle: saline with Tween-80.
Setting [15] is: dose: 12.5 mg/kg/injection, schedule: Q01DX005 (ip), vehicle: saline with Tween-80.
[16] abbreviates: dose: 25.0 mg/kg/injection, schedule: Q01DX005 (ip), vehicle: saline with Tween-80.

In the case of `O=[N+]([O-])c1ccc(SC(=S)N(c2ccccc2)c2ccccc2)c([N+](=O)[O-])c1`, the T/C was 104 % of control (dose: 6.25 mg/kg/injection, schedule: Q01DX009 (ip), vehicle: Klucel (hydroxypropylcellulose) (HPC)); 102 % of control (dose: 12.5 mg/kg/injection, schedule: Q01DX009 (ip), vehicle: Klucel (hydroxypropylcellulose) (HPC)); 102 % of control (dose: 25.0 mg/kg/injection, schedule: Q01DX009 (ip), vehicle: Klucel (hydroxypropylcellulose) (HPC)); 102 % of control (dose: 50.0 mg/kg/injection, schedule: Q01DX009 (ip), vehicle: Klucel (hydroxypropylcellulose) (HPC)).

Turning to `COc1ccc2c(c1)OCCN(C)OC2c1ccccc1` (stereo not drawn), the T/C was 96 % of control under setting [1] and 95 % of control under setting [2].

Regarding `NC1CCOC1=O` (stereo not drawn), the T/C by setting is: under setting [3], 100 % of control; under setting [4], 103 % of control; (dose: 200.0 mg/kg/injection, schedule: Q01DX005 (ip), vehicle: saline) 100 % of control.

For the compound `CCn1c(Cl)c(/C=N/NC(N)=S)c2ccccc21`, the T/C by setting is: under setting [5], 97 % of control; under setting [6], 91 % of control.

Turning to `C/C=C\n1ccccc1=O`, the T/C by setting is: under setting [7], 107 % of control; under setting [8], 113 % of control; under setting [9], 109 % of control.

With `COc1ccc(C2OC3=C(Nc4ccc(Cl)cc4N3)C2=O)cc1` (stereo not drawn), the T/C runs as follows: (dose: 30.0 mg/kg/injection, schedule: Q01DX005 (ip), vehicle: Klucel (hydroxypropylcellulose) (HPC)) 98 % of control; (dose: 60.0 mg/kg/injection, schedule: Q01DX005 (ip), vehicle: Klucel (hydroxypropylcellulose) (HPC)) 94 % of control; (dose: 120.0 mg/kg/injection, schedule: Q01DX005 (ip), vehicle: Klucel (hydroxypropylcellulose) (HPC)) 93 % of control and 97 % of control; (dose: 240.0 mg/kg/injection, schedule: Q01DX005 (ip), vehicle: Klucel (hydroxypropylcellulose) (HPC)) 98 % of control.

As for `COC(=O)CCSCCO`, the T/C was 119 % of control under setting [10], 109 % of control under setting [11] and 101 % of control under setting [12].

For `COc1ccc(OC)c(N2C(=O)C(Cl)=C(Cl)C2=O)c1`, the T/C is 100 % of control (dose: 12.5 mg/kg/injection, schedule: Q01DX001 (ip), vehicle: saline with Tween-80); 100 % of control (dose: 25.0 mg/kg/injection, schedule: Q01DX001 (ip), vehicle: saline with Tween-80); 114 % of control (dose: 50.0 mg/kg/injection, schedule: Q01DX001 (ip), vehicle: saline with Tween-80).

For the compound `Cc1ccc(C)c(NC(=O)CCC(=O)C(C#N)c2cccc3ccccc23)c1` (stereo not drawn), the T/C under setting [10] is 104 % of control, the T/C under setting [11] was 104 % of control and the T/C under setting [12] is 105 % of control.

Take `CCN(CC)CCOCC1CC2C(C=C1C)C2(C)C` (stereo not drawn): the T/C was 107 % of control under setting [3] and 98 % of control under setting [4].

`Cc1nnc2sc(C(F)(F)F)nn12`: the T/C is 99 % of control (dose: 50.0 mg/kg/injection, schedule: Q01DX001 (ip), vehicle: Klucel (hydroxypropylcellulose) (HPC)); 98 % of control under setting [5]; 101 % of control under setting [6].

Consider `NC(=O)c1nnn(-c2ccccc2)n1`, for which the T/C is 105 % of control (dose: 100.0 mg/kg/injection, schedule: Q04DX003 (ip), vehicle: Klucel (hydroxypropylcellulose) (HPC)); 99 % of control (dose: 200.0 mg/kg/injection, schedule: Q04DX003 (ip), vehicle: Klucel (hydroxypropylcellulose) (HPC)); 89 % of control (dose: 400.0 mg/kg/injection, schedule: Q04DX003 (ip), vehicle: Klucel (hydroxypropylcellulose) (HPC)).

With `COCCc1nn[nH]n1`, the T/C was 110 % of control under setting [7], 115 % of control under setting [8] and 109 % of control under setting [9].

In the case of `COc1ccc(C(=O)Nc2c(O)ccc3ccccc23)cc1OC`, the T/C under setting [1] was 101 % of control, the T/C under setting [2] is 97 % of control and the T/C under setting [13] was 100 % of control.

For the compound `CC1NC(CCCCCCCCCCC2=CC(CCCCCCCCCCC3CCC(O)C(C)N3)C3CCCN3C2)CCC1O` (stereo not drawn), the T/C reads like this: (dose: 0.93 mg/kg/injection, schedule: Q01DX005 (ip), vehicle: water) 95 % of control; (dose: 1.87 mg/kg/injection, schedule: Q01DX005 (ip), vehicle: water) 96 % of control; (dose: 3.75 mg/kg/injection, schedule: Q01DX005 (ip), vehicle: water) 91 % of control and 92 % of control and 94 % of control; (dose: 7.5 mg/kg/injection, schedule: Q01DX005 (ip), vehicle: water) 93 % of control.

For `CC(=O)OC1(C)CC2(CCCCC2)N=N1` (stereo not drawn), the T/C is, setting by setting: (dose: 12.5 mg/kg/injection, schedule: Q01DX009 (ip), vehicle: other) 100 % of control; (dose: 25.0 mg/kg/injection, schedule: Q01DX009 (ip), vehicle: other) 113 % of control; (dose: 50.0 mg/kg/injection, schedule: Q01DX009 (ip), vehicle: other) 98 % of control; (dose: 100.0 mg/kg/injection, schedule: Q01DX009 (ip), vehicle: other) 111 % of control and 91 % of control; (dose: 200.0 mg/kg/injection, schedule: Q01DX009 (ip), vehicle: other) 107 % of control; (dose: 400.0 mg/kg/injection, schedule: Q01DX009 (ip), vehicle: other) 113 % of control.

For `CNC(=O)OCc1c(COC(=O)NC)c(-c2ccsc2)n2c1CCC2`, the T/C was 118 % of control (dose: 15.0 mg/kg/injection, schedule: Q01DX005 (ip), vehicle: saline with Tween-80); 119 % of control and 124 % of control under setting [10].

Take `O=P1(Oc2ccccc2)NC2CCCCC2N1` (stereo not drawn): the T/C reads like this: (dose: 12.5 mg/kg/injection, schedule: Q01DX005 (ip), vehicle: Klucel + Tween-80) 95 % of control; (dose: 25.0 mg/kg/injection, schedule: Q01DX005 (ip), vehicle: Klucel + Tween-80) 97 % of control; (dose: 50.0 mg/kg/injection, schedule: Q01DX005 (ip), vehicle: Klucel + Tween-80) 95 % of control; under setting [5], 94 % of control.

As for `COc1cc2cc(c1Cl)N1CC(=O)C(C)(O)C(=O)N(C)C(C)C(=O)OC(CC1=O)C1(C)OC1C(C)C1CC(O)(NC(=O)O1)C(OC)/C=C\C=C(\C)C2OC` (stereo not drawn), the T/C by setting is: (dose: 2.0 micrograms/kg/injection, schedule: Q01DX009 (ip), vehicle: distilled water + alcohol) 151 % of control; (dose: 4.0 micrograms/kg/injection, schedule: Q01DX009 (ip), vehicle: distilled water + alcohol) 153 % of control and 168 % of control; (dose: 16.0 micrograms/kg/injection, schedule: Q01DX009 (ip), vehicle: distilled water + alcohol) 210 % of control.

Take `O=C(Nc1ccc(Cl)c(Cl)c1)Oc1ccccc1Cl`: the T/C was 106 % of control under setting [10], 107 % of control under setting [11] and 105 % of control under setting [12].

In the case of `CC1(C)CC(=O)c2ccccc21`, the T/C was 106 % of control (dose: 3.12 mg/kg/injection, schedule: Q01DX005 (ip), vehicle: saline with Tween-80); 103 % of control under setting [14]; 113 % of control under setting [15]; 113 % of control under setting [16].

Regarding `C=CC1CC(NC(=O)OC)C(=O)O1` (stereo not drawn), the T/C under setting [1] is 104 % of control, the T/C under setting [2] was 104 % of control and the T/C under setting [13] was 99 % of control.

On to `COc1ccc(C2CCC[C@H](CCc3ccc(O)cc3)O2)cc1` (stereo partly drawn), for which the T/C is, setting by setting: under setting [1], 97 % of control; under setting [2], 114 % of control; under setting [13], 109 % of control.

With `c1csc(CSc2ncnc3nc[nH]c23)c1`, the T/C (dose: 100.0 mg/kg/injection, schedule: Q04DX003 (ip), vehicle: saline with Tween-80) is 100 % of control; the T/C (dose: 200.0 mg/kg/injection, schedule: Q04DX003 (ip), vehicle: saline with Tween-80) was 100 % of control; the T/C (dose: 264.0 mg/kg/injection, schedule: Q04DX003 (ip), vehicle: saline with Tween-80) is 100 % of control; the T/C (dose: 400.0 mg/kg/injection, schedule: Q04DX003 (ip), vehicle: saline with Tween-80) was 109 % of control.

Consider `COC(=O)/C=C(/C(=O)OC)N(O)C(=O)CN1C(=O)c2ccccc2C1=O`, for which the T/C is 102 % of control under setting [10], 100 % of control under setting [11] and 101 % of control under setting [12].

`COc1cc(C(=O)Nc2ccc(NC3=NCCN3)cc2)cc(C(=O)Nc2ccc(NC3=NCCN3)cc2)c1`: the T/C is 102 % of control under setting [14], 106 % of control under setting [15] and 115 % of control under setting [16].
